Results taken from patent US9499486B2, “Kinase inhibitor” (RESPIVERT LIMITED, priority 2014, dated 2016).

What was measured:
B-Raf (V600E) = B-Raf (V600E) (Homo sapiens (Human), UniProt P15056, V600E); assay: KINOMEscan binding of B-Raf (V600E) to standard ligand
Source text: (§1) These assays may be conducted by DiscoverX (formerly Ambit; San Diego, Calif.).

B-Raf = B-Raf (Homo sapiens (Human), UniProt P15056); assay: KINOMEscan binding of B-Raf to standard ligand
Source text: as §1

p38 MAPKα = p38 MAPKα (Homo sapiens (Human), UniProt Q16539); assay: KINOMEscan dissociation constant, p38 MAPKα; format: binding
Source text: as §1

c-Src = c-Src (Homo sapiens (Human), UniProt P12931); assay: c-Src enzyme inhibition, Z-LYTE FRET; format: biochemical
Description: The relevant enzyme (3000 ng/mL or 2000 ng/mL respectively, 2.5 μL) is incubated with the test compound (either 1 μg/mL, 0.1 μg/mL, 0.01 μg/mL, or 0.001 μg/mL, 2.5 μL each) for 2 hr at RT. The FRET peptides (8 μM, 2.5 μL), and appropriate ATP solutions (2.5 μL, 800 μM for c-Src, and 60 μM ATP for Syk) are then added to the enzymes/compound mixtures and the mixture incubated for 1 hr. Development reagent (protease, 5 μL) is added for 1 hr prior to detection in a fluorescence microplate reader (Varioskan® Flash, ThermoFisher Scientific).
In all cases, the site-specific protease cleaves non-phosphorylated peptide only and eliminates the FRET signal. Phosphorylation levels of each reaction are calculated using the ratio of coumarin emission (donor) over fluorescein emission (acceptor), for which high ratios indicate high phosphorylation and low ratios indicate low phosphorylation levels.

Lck = Lck (Homo sapiens (Human), UniProt P06239); assay: KINOMEscan dissociation constant, Lck; format: binding
Source text: as §1

Chain of Lck (P06239 whole entry): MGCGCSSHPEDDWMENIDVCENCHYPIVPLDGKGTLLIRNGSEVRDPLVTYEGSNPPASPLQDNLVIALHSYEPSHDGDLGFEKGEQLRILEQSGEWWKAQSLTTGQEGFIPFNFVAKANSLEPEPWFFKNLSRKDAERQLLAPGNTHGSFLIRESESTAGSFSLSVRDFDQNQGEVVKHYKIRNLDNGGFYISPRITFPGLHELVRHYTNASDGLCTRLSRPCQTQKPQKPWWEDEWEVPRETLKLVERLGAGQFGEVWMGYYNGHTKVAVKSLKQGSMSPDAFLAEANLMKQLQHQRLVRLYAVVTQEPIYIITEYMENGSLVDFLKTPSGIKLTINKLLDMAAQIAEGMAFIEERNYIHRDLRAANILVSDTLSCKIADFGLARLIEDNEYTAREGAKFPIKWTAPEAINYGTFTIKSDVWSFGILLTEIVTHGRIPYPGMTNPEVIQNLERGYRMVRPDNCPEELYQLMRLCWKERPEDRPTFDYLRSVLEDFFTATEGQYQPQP
Chain of B-Raf (V600E) (P15056 whole entry V600E): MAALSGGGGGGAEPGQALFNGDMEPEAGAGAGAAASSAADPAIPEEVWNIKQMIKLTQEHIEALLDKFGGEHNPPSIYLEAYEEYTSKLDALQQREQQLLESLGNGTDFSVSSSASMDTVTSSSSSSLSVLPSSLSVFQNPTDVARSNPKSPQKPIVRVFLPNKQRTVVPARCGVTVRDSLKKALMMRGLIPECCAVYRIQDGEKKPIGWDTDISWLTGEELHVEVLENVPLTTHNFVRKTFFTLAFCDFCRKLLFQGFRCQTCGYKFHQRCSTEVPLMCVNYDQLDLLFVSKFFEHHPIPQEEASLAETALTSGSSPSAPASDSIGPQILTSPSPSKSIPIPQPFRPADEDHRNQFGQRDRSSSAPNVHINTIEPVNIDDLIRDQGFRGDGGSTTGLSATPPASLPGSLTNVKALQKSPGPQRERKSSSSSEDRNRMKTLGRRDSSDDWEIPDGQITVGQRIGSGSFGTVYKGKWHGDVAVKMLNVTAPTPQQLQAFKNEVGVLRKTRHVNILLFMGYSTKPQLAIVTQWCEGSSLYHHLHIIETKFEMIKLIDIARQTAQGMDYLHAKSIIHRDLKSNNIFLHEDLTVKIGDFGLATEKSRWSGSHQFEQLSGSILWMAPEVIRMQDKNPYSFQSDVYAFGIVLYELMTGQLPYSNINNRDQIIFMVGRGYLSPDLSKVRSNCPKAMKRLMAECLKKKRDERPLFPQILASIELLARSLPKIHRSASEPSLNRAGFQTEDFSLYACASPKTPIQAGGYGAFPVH
Chain of p38 MAPKα (Q16539 whole entry, looked up): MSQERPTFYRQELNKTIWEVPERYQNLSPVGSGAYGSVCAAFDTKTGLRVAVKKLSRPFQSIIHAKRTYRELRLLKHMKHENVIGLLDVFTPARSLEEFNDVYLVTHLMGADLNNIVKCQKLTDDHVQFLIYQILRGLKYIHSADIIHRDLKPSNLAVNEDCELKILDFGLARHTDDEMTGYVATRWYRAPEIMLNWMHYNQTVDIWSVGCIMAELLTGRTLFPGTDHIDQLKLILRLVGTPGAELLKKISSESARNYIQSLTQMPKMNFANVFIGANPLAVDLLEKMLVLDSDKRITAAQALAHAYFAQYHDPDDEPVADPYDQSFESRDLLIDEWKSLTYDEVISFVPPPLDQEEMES
Chain of c-Src (P12931 whole entry, looked up): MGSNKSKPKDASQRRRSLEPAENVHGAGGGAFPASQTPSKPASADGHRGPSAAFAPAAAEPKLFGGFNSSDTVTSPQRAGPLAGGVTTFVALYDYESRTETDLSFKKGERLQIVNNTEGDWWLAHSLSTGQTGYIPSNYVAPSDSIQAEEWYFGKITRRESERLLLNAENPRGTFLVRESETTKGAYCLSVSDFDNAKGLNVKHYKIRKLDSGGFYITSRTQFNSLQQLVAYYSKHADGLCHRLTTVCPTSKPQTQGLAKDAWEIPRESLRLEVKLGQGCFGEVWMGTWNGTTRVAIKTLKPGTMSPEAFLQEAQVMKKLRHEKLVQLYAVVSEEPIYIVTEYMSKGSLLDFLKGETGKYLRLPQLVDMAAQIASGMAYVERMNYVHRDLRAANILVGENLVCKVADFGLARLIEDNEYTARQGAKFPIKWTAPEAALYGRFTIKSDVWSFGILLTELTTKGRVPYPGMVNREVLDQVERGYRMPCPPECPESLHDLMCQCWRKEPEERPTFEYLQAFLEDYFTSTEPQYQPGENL
Chain of B-Raf (P15056 whole entry): as the sequence (P15056 whole entry V600E) above, with E600V counted along it

COc1cc(Nc2cc(Oc3ccc(NC(=O)Nc4cc(C(C)(C)C)cc(NS(C)(=O)=O)c4OC)c4ccccc34)ccn2)ccc1C(=O)O [Example 1, 4-((4-((4-(3-(5-(tert-Butyl)-2-methoxy-3-(methylsulfonamido)phenyl)ureido)naphthalen-1-yl)oxy)pyridin-2-yl)amino)-2-methoxybenzoic acid]
effect on the binding of B-Raf (V600E) to its standard ligand (B-Raf (V600E)): did not have any significant effect | effect on the binding of B-Raf to its standard ligand (B-Raf): did not have any significant effect | Kd (p38 MAPKα): 2.8 nM | IC50 (c-Src): 14 nM | Kd (Lck): 4.2 nM
